From patent US11879137B2, “Treatment of type 1 diabetes and autoimmune diseases or disorders” (THE CHILDREN'S MEDICAL CENTER CORPORATION, priority 2017, dated 2024)

Test system: KL cells from bone marrow of NOD mice
Assay: Flow cytometry of murine KL cells modulated with PGE2 or dmPGE2
Type: cell-based
Details: for CXCR4 among chemokine receptors on treated KL cells: chemokine receptor profile; for expression of PD-L2, PD-1, CD80 and CD40: vs unmodulated KL cells
Description: FIGS. 19A-19G show the profile of murine KL cells. (FIG. 19A-19B) Representative flow cytometric analysis and quantitative bar graph of PD-L1 expression on Lineage^−c-kit^+ (KL) cells from NOD mice pre- and post-pharmacologic modulation with PGE2. (FIG. 19C-19D) Representative flow cytometric analysis and quantitative bar graph of CXCR4 expression on KL cells from NOD mice pre- and post-pharmacologic modulation with PGE2. (FIG. 19E) Quantitative bar graph of flow cytometric expression of positive and negative costimulatory molecules (CD40, CD80, CD86, PD-L1, PD-L2 and PD-1) and of select pro-inflammatory and anti-inflammatory cytokines (IFN-γ, IL-10, IL-4) in PGE2-modulated KL cells from NOD mice as compared to those modulated with a selected PGE2 clinical grade agonist (dmPGE2) and compared to unmodulated KL cells isolated from the bone marrow of normoglycemic NOD mice. (FIG. 19F) Flow cytometric expression of selected chemokine receptors (CXCR4, CCR2, CCR4, CCR5, CCR6, CCR7, CCR8, and CXCR3) in PGE2-modulated KL cells from NOD mice as compared to those modulated with a selected PGE2 clinical grade agonist (dmPGE2) and to unmodulated KL cells isolated from the bone marrow of normoglycemic NOD mice. (FIG. 19G) Quantitative bar graph of flow cytometric expression of chemokines receptors (CCR2, CCR4, CCR5, CCR6, CCR7, CCR8, CXCR3 and CXCR4) in PGE2-modulated KL cells from NOD mice as compared to those modulated with a selected PGE2 clinical grade agonist (dmPGE2) and compared to unmodulated KL cells isolated from the bone marrow of normoglycemic NOD mice. […] Abbreviations: KL, Lineage^−c-kit^+ cells.
Murine regulatory KL cell modulation. Murine bone marrow KL (c-Kit+Lineage-) cells were isolated using magnetic beads and MACS® separation columns (Miltenyi Biotec, San Diego, CA) and ˜2×10^5 cells were plated in a U-bottomed 96-well plate with 200 μl of stem cell medium, Stemspan-SFEMII (STEMCELL Technologies, Cambridge, MA) and PGE2 (PromoKine, PromoCell Gmbh, Germany) was added at day 0 and day 1, at a concentration of 10 μM.
Flow cytometric analysis and intracellular cytokine staining. Flow cytometry was performed to analyze surface expression markers of PGE2-modulated HSPCs and dmPGE2 (16, 16-dimethyl PGE2)-modulated HSPCs. Anti-mouse PD-L1, PD-L2, PD-1, CD40, CD80, CD86, CD4, CD8, Ly-6G (Gr-1), B220, CD3, CXCR4, CCR2, CCR4, CCR5, CCR6, CCR7, CCR8, CXCR3, IL-4, IL-10 and IFN-γ were purchased from BD Biosciences, eBioscience (San Diego, CA) and BioLegend. The following antibodies corresponded to isotype controls for the murine antibodies above: PE mouse IgG1, κ isotype ctrl, Armenian hamster IgG; APC mouse IgG2b, κ isotype ctrl, Armenian hamster IgG. Cells were subjected to FACS analysis and were run on a FACSCalibur™ (Becton Dickinson). Data were analyzed using FlowJo software version 8.7.3 (Treestar).
Murine PGE2-modulated HSPCs abrogate the autoimmune response in vitro. The feasibility of pharmacological modulation of PD-L1 with PGE2 was next explored in murine HSPCs. […] Moreover, the chemokine receptor profile of PGE2-modulated KL cells as compared to dmPGE2-modulated KL cells and unmodulated KL cells was explored in order to assess which chemokines are potentially involved in the homing of PGE2-modulated and dmPGE2-modulated KL cells. […] The immunoregulatory properties of PGE2-modulated KL cells was next explored in an autoimmune setting in vitro. PGE2-modulated KL cells generated from normoglycemic NOD mice were co-cultured at ratios of 1:1, 1:5 and 1:10 (KL cells to T cells) with CD11c+ DCs and BDC2.5 transgenic CD4+CD25− T cells in the presence of BDC2.5 peptide. […] Indeed, PGE2-modulated KL cells exerted a robust immunoregulatory effect even if added at low ratios (1:5 PGE2-treated KL cell to T cells). A less pronounced effect was observed when unmodulated KL were added to the assays. […] PGE2-modulated HSPCs are thus endowed with immunoregulatory properties and are capable of abrogating the autoimmune response in vitro. […]

Row | Compound | CXCR4 among chemokine receptors on treated KL cells | expression of PD-L2, PD-1, CD80 and CD40 | CXCR4 expression on KL cells (FACS) | PD-L1 expression on KL cells (FACS, 10 μM day 0 and day 1)
1 | CCCCC(C)(C)[C@H](O)/C=C/[C@H]1[C@H](O)CC(=O)[C@@H]1C/C=C\CCCC(=O)O [16,16-dimethyl PGE2] | most expressed | similarly upregulated | – | –
2 | CCCCC[C@H](O)/C=C/[C@H]1[C@H](O)CC(=O)[C@@H]1C/C=C\CCCC(=O)O [PGE2, prostaglandin E2] | most expressed | upregulation | markedly upregulated | upregulation
